Assay results taken from BindingDB's records for doi:10.1021/jm9604383 (Goethe-University Frankfurt, 2021).
Each block holds one compound with its values, some of them ahead of it.

How the values were obtained:
[1] = target: T1, Adenosine receptor A1 (Homo sapiens, UniProt P30542); assay: Binding affinity to human A1 adenosine receptor assessed as inhibition constant
T1 sequence (P30542 whole entry): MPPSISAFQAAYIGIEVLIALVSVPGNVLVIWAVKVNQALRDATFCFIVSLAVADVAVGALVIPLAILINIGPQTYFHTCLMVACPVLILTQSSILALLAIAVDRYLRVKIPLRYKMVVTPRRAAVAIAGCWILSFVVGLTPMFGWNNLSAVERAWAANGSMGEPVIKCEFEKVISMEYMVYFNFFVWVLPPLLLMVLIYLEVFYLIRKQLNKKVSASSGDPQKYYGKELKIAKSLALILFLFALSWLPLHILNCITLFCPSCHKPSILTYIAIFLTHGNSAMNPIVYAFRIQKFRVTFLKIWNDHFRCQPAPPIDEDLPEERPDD

[2] = target: T2, Adenosine receptor A3 (Homo sapiens, UniProt P0DMS8); assay: Binding affinity to human A3 adenosine receptor assessed as inhibition constant
T2 sequence (P0DMS8 whole entry): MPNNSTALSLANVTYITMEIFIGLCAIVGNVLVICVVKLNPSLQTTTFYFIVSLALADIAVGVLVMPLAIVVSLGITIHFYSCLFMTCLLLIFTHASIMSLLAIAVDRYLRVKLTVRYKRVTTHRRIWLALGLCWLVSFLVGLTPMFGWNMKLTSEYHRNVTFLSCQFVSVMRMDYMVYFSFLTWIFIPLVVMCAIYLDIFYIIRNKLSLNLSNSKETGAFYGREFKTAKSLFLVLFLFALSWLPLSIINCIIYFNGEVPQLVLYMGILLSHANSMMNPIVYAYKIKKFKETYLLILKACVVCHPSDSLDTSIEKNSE

[3] = target: T2, Adenosine receptor A3; assay: Displacement of [1251]AB-MEC from human A3 receptor assessed as inhibition constant
[4] = target: T3, Adenosine receptor A2b (Homo sapiens, UniProt P29275); assay: Inhibition of human A2b adenosine receptor
T3 sequence (P29275 whole entry): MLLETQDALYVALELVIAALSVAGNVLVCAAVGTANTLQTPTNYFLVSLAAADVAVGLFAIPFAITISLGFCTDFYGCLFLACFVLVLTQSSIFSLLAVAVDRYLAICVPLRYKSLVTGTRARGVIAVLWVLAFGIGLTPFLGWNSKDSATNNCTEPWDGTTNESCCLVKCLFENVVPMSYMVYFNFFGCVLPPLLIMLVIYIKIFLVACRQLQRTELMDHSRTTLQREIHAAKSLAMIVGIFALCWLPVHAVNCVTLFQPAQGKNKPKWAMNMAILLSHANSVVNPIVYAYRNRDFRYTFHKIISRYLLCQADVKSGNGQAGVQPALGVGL

[5] = target: T4, Palmitoleoyl-protein carboxylesterase NOTUM (Homo sapiens, UniProt Q6P988); assay: Inhibition of human notum using OTPS as substrate incubated for 16 hrs by fluorescent based assay
T4 sequence (Q6P988 whole entry): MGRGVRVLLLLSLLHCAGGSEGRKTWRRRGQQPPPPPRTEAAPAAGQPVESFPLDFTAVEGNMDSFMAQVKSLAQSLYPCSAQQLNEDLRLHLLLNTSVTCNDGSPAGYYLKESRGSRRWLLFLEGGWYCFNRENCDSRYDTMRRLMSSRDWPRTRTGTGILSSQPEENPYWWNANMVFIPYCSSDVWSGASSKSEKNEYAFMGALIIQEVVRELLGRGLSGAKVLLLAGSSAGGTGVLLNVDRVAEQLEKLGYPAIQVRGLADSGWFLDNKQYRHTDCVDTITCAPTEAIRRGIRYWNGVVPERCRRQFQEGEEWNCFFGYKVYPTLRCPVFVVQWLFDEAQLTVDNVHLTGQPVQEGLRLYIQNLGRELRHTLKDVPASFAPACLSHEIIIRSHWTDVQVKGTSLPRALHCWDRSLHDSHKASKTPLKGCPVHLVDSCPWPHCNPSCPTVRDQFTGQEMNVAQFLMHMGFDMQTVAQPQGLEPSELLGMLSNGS

[6] = target: T3, Adenosine receptor A2b; assay: Displacement of [3H]DPCPX to human A2B adenosine receptor derived from HEK cells assessed as inhibition constant

Ki [1]: 6.5 nM
Structure (SMILES): CCCn1c(=O)c2nc(-c3ccc(OCC(N)=O)cc3O)[nH]c2n(CCC)c1=O

Ki [1]: 0.95 nM
Structure (SMILES): CCCn1c(=O)c2nc(C3CC4CC3C3OC43)[nH]c2n(CCC)c1=O (stereo not drawn) [8-(3-Oxa-tricyclo[3.2.1.0*2,4*]oct-6-yl)-1,3-dipropyl-3,7-dihydro-purine-2,6-dione]

Ki [3]: 229 nM
Structure (SMILES): CCCCn1c(=O)c2c(ncn2[C@@H]2O[C@H](C(=O)NC)[C@@H](O)[C@H]2O)n(CCCC)c1=O [5-(1,3-Dibutyl-2,6-dioxo-1,2,3,6-tetrahydro-purin-7-yl)-3,4-dihydroxy-tetrahydro-furan-2-carboxylic acid methylamide]

Ki [6]: 5.5 nM
Structure (SMILES): CCCn1c(=O)[nH]c2nc(-c3cnn(Cc4noc(-c5ccc(Cl)cc5)n4)c3)[nH]c2c1=O [8-(1-((5-(4-chlorophenyl)-1,2,4-oxadiazol-3-yl)methyl)-1H-pyrazol-4-yl)-1-propyl-1H-purine-2,6(3H,7H)-dione]

Further lines, the compound ahead of its results:

Structure (SMILES): CC[C@@H]1Cn2c(c3nc(-c4cc(Cl)cc(Cl)c4Cl)nc-3n(C)c2=O)N1
Ki [2]: 0.433 nM

Structure (SMILES): Cn1cnc2c1c(=O)[nH]c(=O)n2C [theobromine]
IC50 [4]: 130000 nM

Structure (SMILES): Cn1c(=O)c2c(ncn2C)n(C)c1=O
IC50 [5]: 19000 nM

Structure (SMILES): CCCn1c(=O)c2nc(-c3ccc(S(=O)(=O)NCCN(C)C)cc3)[nH]c2n(CCC)c1=O
Ki [1]: 6.5 nM
